The text below walks through data of ChEMBL document CHEMBL1127581, “Evolution of a novel series of [(N,N-dimethylamino)propyl]- and piperazinylbenzanilides as the first selective 5-HT1D antagonists” (J Med Chem, 1994).

Each structure is given as a SMILES string. A value given as a limit tells only on which side of the number the result lay.

For test [1], the target named is T1, Muscarinic acetylcholine receptor M1 (Homo sapiens, UniProt P11229).
T1 sequence (P11229 whole entry): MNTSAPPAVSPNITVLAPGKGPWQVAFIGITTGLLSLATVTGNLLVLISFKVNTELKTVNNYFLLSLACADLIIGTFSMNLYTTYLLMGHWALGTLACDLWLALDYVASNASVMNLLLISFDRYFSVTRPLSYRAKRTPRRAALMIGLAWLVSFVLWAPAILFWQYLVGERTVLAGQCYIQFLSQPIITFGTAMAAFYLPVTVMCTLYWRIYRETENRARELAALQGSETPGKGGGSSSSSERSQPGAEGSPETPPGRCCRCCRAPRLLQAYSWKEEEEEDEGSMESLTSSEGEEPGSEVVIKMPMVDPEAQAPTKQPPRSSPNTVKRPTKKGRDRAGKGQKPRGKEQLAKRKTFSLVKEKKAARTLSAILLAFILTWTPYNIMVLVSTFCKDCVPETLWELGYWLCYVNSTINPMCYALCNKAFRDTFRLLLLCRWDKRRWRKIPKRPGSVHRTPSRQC
The experiment in a line: Binding affinity against muscarinic M1 receptor.

The target of test [2] is T2, 5-hydroxytryptamine receptor 1A (Rattus norvegicus, UniProt P19327).
T2 sequence (P19327 whole entry): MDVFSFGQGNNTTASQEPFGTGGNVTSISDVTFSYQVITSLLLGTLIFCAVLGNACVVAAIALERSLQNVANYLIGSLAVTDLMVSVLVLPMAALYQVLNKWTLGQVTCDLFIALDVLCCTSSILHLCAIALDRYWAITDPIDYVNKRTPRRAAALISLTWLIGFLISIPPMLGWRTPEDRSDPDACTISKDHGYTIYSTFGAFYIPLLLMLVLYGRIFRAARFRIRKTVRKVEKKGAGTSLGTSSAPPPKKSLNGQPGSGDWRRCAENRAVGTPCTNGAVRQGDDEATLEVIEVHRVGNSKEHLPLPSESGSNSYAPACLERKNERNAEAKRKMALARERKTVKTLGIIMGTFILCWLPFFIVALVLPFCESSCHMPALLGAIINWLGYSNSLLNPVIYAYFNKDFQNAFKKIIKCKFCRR
Nature of the test: Binding affinity towards 5-hydroxytryptamine 1A receptor in rat hippocampus with [3H]8-OH-DPAT. It counts as tissue-based.

Test [3] has as its target T3, Adrenergic receptor alpha-1 (Homo sapiens, UniProt P35348+P25100+P35368).
T3 sequence (P35348 whole entry): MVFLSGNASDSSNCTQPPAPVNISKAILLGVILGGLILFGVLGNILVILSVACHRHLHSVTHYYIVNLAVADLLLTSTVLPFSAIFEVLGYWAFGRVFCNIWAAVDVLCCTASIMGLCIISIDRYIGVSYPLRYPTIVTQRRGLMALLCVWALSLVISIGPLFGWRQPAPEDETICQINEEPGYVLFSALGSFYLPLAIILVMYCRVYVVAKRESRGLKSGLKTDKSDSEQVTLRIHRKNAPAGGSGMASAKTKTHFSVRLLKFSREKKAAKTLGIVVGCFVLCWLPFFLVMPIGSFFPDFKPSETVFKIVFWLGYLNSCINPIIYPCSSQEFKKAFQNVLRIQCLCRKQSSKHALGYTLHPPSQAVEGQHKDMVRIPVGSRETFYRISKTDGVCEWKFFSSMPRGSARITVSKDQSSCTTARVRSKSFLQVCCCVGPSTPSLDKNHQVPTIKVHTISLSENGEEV
T3 sequence (P25100 whole entry): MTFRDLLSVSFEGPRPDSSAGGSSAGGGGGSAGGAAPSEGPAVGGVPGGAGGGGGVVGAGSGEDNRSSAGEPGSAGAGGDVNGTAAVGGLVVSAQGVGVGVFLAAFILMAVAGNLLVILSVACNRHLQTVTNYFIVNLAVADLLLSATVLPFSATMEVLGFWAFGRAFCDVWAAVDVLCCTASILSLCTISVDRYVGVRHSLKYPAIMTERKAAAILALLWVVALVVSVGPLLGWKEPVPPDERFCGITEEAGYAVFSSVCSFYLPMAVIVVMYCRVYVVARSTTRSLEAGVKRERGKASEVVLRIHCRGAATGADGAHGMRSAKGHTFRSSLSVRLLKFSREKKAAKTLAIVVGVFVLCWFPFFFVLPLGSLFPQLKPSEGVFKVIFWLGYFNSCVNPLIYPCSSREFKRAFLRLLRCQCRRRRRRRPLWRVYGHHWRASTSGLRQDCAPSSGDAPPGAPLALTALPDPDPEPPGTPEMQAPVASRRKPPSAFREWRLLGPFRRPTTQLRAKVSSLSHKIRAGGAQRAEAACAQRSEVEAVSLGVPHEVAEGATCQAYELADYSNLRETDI
T3 sequence (P35368 whole entry): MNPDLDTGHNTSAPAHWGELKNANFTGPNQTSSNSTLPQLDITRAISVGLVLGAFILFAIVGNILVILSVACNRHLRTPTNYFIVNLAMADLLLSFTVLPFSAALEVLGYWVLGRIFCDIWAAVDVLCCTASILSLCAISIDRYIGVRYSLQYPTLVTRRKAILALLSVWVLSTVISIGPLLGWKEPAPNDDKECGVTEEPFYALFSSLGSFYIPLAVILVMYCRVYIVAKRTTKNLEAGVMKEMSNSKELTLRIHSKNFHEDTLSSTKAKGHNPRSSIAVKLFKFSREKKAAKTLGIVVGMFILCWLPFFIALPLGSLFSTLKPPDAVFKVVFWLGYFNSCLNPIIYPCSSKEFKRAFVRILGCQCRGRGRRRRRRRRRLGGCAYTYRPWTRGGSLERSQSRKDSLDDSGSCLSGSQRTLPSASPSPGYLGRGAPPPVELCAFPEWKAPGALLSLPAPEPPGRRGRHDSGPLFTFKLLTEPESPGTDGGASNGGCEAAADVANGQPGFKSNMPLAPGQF
Nature of the test: Binding affinity against alpha-1 adrenoceptor. It counts as protein assay.

Test [4] has as its target Muscarinic acetylcholine receptor M3 (Homo sapiens, UniProt P20309). Nature of the test: Binding affinity against muscarinic M3 receptor.
Test [5] concerns the target D(3) dopamine receptor (Homo sapiens, UniProt P35462). The experiment in a line: Binding affinity against dopamine D3 receptor.
The species named for test [6] is Canis familiaris. Conditions: Canis lupus familiaris; Saphenous vein; filed as antagonist.

Chain of D(3) dopamine receptor (P35462 whole entry): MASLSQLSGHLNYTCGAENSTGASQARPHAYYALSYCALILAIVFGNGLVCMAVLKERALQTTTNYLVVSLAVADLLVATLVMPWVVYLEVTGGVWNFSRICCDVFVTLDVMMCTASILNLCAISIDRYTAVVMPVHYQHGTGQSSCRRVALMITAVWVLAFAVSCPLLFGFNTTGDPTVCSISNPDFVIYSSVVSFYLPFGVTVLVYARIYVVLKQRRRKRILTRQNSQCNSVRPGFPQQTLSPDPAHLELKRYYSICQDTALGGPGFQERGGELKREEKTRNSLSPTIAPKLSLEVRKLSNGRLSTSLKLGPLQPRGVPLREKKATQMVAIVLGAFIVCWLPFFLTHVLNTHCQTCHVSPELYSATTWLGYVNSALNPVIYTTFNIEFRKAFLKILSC
Chain of Muscarinic acetylcholine receptor M3 (P20309 whole entry): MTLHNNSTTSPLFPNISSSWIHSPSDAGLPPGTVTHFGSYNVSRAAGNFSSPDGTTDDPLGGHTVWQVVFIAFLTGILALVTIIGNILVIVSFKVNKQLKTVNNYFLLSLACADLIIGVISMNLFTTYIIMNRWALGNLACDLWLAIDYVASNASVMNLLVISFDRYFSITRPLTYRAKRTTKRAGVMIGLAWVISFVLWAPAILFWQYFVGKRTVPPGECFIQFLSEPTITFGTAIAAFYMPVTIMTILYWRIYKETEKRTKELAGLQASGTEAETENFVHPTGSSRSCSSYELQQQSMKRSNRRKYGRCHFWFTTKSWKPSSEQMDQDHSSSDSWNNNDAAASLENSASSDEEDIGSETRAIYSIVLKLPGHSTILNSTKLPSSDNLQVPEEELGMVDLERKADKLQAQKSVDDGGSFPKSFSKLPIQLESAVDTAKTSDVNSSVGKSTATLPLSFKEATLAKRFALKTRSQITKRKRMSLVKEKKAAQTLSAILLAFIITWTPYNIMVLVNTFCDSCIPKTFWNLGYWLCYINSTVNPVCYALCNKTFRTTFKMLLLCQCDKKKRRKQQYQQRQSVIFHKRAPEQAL

Regarding `COc1ccc(NC(=O)c2ccc(-c3ccc(-c4noc(C)n4)cc3C)cc2)cc1N1CCN(C)CC1` [GR-127935], the inhibitory constant (Ki) in test [1] is > 1000 nM; in test [2] it was 316 nM; in test [4] it was > 1000 nM; in test [5] it was > 10 µM. In addition, the Log Ki in test [3] is > -6. In addition, the pKB result in test [6] was “Antagonist”.

By Ki is commonly meant a dissociation constant, usually derived from enzyme kinetics or from competition with a known ligand. Higher therefore signals weaker binding.
